Data on 3 compounds can be found in ChEMBL document CHEMBL1151653, “13-Deoxycarminomycin, a new biosynthetic anthracycline” (J Nat Prod, 1985).

In brackets after ≈: the same amount, converted by molar mass.

One series deals with Bacillus subtilis. Nature of the series: Antimicrobial activity against Bacillus subtilis ATCC 6633 by tube dilution method. It counts as functional.
Series [1] has as its system Staphylococcus aureus. The experiment in a line: Antimicrobial activity against Staphylococcus aureus 209 P by tube dilution method. The format is functional.
Series [2] deals with Staphylococcus aureus. Nature of the series: Antimicrobial activity against drug resistant Staphylococcus aureus isolate 153 producing beta lactamase by tube dilution method. It counts as functional.
The subject of another series is Escherichia coli. The experiment in a line: Antimicrobial activity against Escherichia coli B ATCC 11303 by tube dilution method. The format is functional.
The test system of another series is Micrococcus luteus. The experiment in a line: Antimicrobial activity against Sarcina lutea ATCC 9341 by tube dilution method. The format is functional.
Series [3] has as its system HeLa. Nature of the series: Cytotoxicity against human HeLa cells assessed as colony formation at 12.5 ng/ml relative to control. The format is functional.
For series [4], the system named is HeLa. Nature of the series: Cytotoxicity against human HeLa cells assessed as colony formation at 6.2 ng/ml relative to control. It counts as functional.
Series [5] deals with HeLa. Nature of the series: Cytotoxicity against human HeLa cells assessed as colony formation at 3.1 ng/ml relative to control. It counts as functional.
The test system of series [6] is HeLa. The experiment in a line: Cytotoxicity against human HeLa cells assessed as colony formation at 1.5 ng/ml relative to control. The format is functional.
Series [7] deals with HeLa. The experiment in a line: Cytotoxicity against human HeLa cells assessed as inhibition of colony formation relative to control. The format is functional. The following applies: read-out: ID50 (the source's name).
Series [8] relates to P388. The experiment in a line: Cytotoxicity against mouse P388 cells. The format is functional. The conditions noted are these: read-out: ID50 (the source's name).
In series [9] the test system is P388. Nature of the series: Cytotoxicity against doxorubicin resistant mouse P388 cells. The format is functional. The conditions noted are these: read-out: ID50 (the source's name).
The subject of series [10] is P388. Nature of the series: Antitumor activity against mouse P388 cells xenografted in mouse assessed as median survival time at 0.4 mg/kg, ip relative to control. The format is functional. The following applies: route intraperitoneal.
The test system of series [11] is P388. Nature of the series: Antitumor activity against mouse P388 cells xenografted in mouse assessed as median survival time at 0.6 mg/kg, ip relative to control. The following applies: route intraperitoneal. It counts as functional.
The subject of series [12] is P388. Nature of the series: Antitumor activity against mouse P388 cells xenografted in mouse assessed as median survival time at 1 mg/kg, ip relative to control. It counts as functional. The following applies: route intraperitoneal.
For series [13], the system named is P388. The experiment in a line: Antitumor activity against mouse P388 cells xenografted in mouse assessed as median survival time at 1.5 mg/kg, ip relative to control. The format is functional. The following applies: route intraperitoneal.
For series [14], the system named is Mus musculus. Nature of the series: Toxicity in mouse P388 cells xenografted mouse assessed as induction of death at 0.4 mg/kg, ip. Also on record: dose 0.4 mg/kg, route intraperitoneal. It counts as organism-based. The conditions noted are these: in vivo.
In series [15] the test system is Mus musculus. Nature of the series: Toxicity in mouse P388 cells xenografted mouse assessed as induction of death at 0.6 mg/kg, ip. The format is organism-based. The following applies: in vivo. Also noted: dose 0.6 mg/kg, route intraperitoneal.
Series [16] concerns Mus musculus. Nature of the series: Toxicity in mouse P388 cells xenografted mouse assessed as induction of death at 1.5 mg/kg, ip. The format is organism-based. Also on record: dose 1.5 mg/kg, route intraperitoneal. The conditions noted are these: in vivo.
The subject of series [17] is HeLa. Nature of the series: Cytotoxicity against human HeLa cells assessed as inhibition of colony formation at 25 ng/ml relative to control. Also noted: scale not given: the % may be the effect or the level left. It counts as functional.
For series [18], the system named is P388. The experiment in a line: Antitumor activity against mouse P388 cells xenografted in mouse assessed as median survival time at 2.9 mg/kg, ip relative to control. The following applies: route intraperitoneal. The format is functional.
Series [19] relates to P388. Nature of the series: Antitumor activity against mouse P388 cells xenografted in mouse assessed as median survival time at 4.4 mg/kg, ip relative to control. It counts as functional. The following applies: route intraperitoneal.
The test system of series [20] is P388. The experiment in a line: Antitumor activity against mouse P388 cells xenografted in mouse assessed as median survival time at 6.6 mg/kg, ip relative to control. It counts as functional. The conditions noted are these: route intraperitoneal.
The test system of series [21] is Mus musculus. Nature of the series: Toxicity in mouse P388 cells xenografted mouse assessed as induction of death at 2.9 mg/kg, ip. Also noted: dose 2.9 mg/kg, route intraperitoneal. The format is organism-based. The following applies: in vivo.
The test system of series [22] is Mus musculus. Nature of the series: Toxicity in mouse P388 cells xenografted mouse assessed as induction of death at 4.4 mg/kg, ip. Also on record: dose 4.4 mg/kg, route intraperitoneal. The following applies: in vivo. It counts as organism-based.

Usually MIC stands for the smallest concentration in the dilution series that meets the test's criterion for growth inhibition. Take `CC[C@]1(O)Cc2c(O)c3c(c(O)c2[C@@H](O[C@H]2C[C@H](N)[C@H](O)[C@H](C)O2)C1)C(=O)c1c(O)cccc1C3=O`: the minimal inhibitory concentration (MIC) was found to be 6.25 µg/mL (≈ 12.5 µM) against Bacillus subtilis; 12.5 µg/mL (≈ 25 µM) against Staphylococcus aureus [1]; 25 µg/mL (≈ 50 µM) against Staphylococcus aureus [2]; 3.12 µg/mL (≈ 6.25 µM) in the series on Escherichia coli; 1.56 µg/mL (≈ 3.12 µM) in the series with Micrococcus luteus. In addition, the Activity with HeLa [3] came out at 36%; in the series with HeLa [4], 55%; with HeLa [5] it was 90%; in the series with HeLa [6] it was 126%; with P388 [10], 136%; in the series on P388 [11] it was 150%. In addition, the Activity in the series on P388 [12] is 163%; in the series on P388 [13], 109%; in the series on Mus musculus [14] it was “Non-toxic”; with Mus musculus [15] it was “Non-toxic”; with Mus musculus [16], “Toxic”. In addition, the IC50 came out at 0.0062 µg/mL (≈ 0.0124 µM) in the series with HeLa [7], 0.0015 µg/mL (≈ 0.003 µM) in the series with P388 [8] and 0.004 µg/mL (≈ 0.00801 µM) in the series with P388 [9].
As for `CC(=O)[C@]1(O)Cc2c(O)c3c(c(O)c2[C@@H](O[C@H]2C[C@H](N)[C@H](O)[C@H](C)O2)C1)C(=O)c1c(O)cccc1C3=O` [CARUBICIN], the Activity with HeLa [3] was found to be 0%; in the series on HeLa [4] it was 3%; with HeLa [5], 33%; with HeLa [6] it was 120%. The IC50 with HeLa [7] is 0.0031 µg/mL (≈ 0.00604 µM); with P388 [8], 0.007 µg/mL (≈ 0.0136 µM); with P388 [9], 0.004 µg/mL (≈ 0.00779 µM).
A word on the T/C: it is the result in the treated group divided by that in the control group, in per cent. As to `COc1cccc2c1C(=O)c1c(O)c3c(c(O)c1C2=O)C[C@@](O)(C(C)=O)C[C@@H]3O[C@H]1C[C@H](N)[C@H](O)[C@H](C)O1` [DAUNORUBICIN], the Activity in the series with HeLa [17] was 13%; in the series with HeLa [3] it was 48%; in the series with HeLa [4], 123%; with Mus musculus [21] it was “Non-toxic”; in the series on Mus musculus [22], “Non-toxic”. For the same compound, the IC50 was 0.0125 µg/mL (≈ 0.0237 µM) with HeLa [7], 0.0095 µg/mL (≈ 0.018 µM) in the series on P388 [8] and 0.75 µg/mL (≈ 1.42 µM) in the series with P388 [9]. The T/C with P388 [18] came to 177%; with P388 [19], 190%; with P388 [20], 168%.
